Drawing on patent publication US20240182492A1, “AZAHETEROARYL COMPOUND, PREPARATION METHOD THEREFOR, AND APPLICATION THEREOF” (SHANGHAI BLUERAY BIOPHARMA CO., LTD., priority 2021, published 2024), this text covers IC50 for 14 molecules.

Assay [1] has as its target T1, EED protein (full-length, His6 tag) binding to H3K27me3 polypeptide (Homo sapiens, UniProt O75530).
T1 construct: The full-length EED protein (441 amino acids) with His6 tag
As to the kind of experiment: AlphaScreen evaluation of blocking the binding of EED to H3K27Me3. As to conditions: EED / biotinylated H3K27me3 peptide competition. As for the experimental part:
Example 53: Evaluation of the Effect of the Compound in Blocking the Binding of EED to H3K27Me3 by AlphaScreen (a-Screening) Method
First, compound solutions with different concentration gradients are prepared. Compound powder is dissolved in DMSO to form mother liquor. 1.5 μL of the compound mother liquor is taken to 198.5 μL reaction buffer (25 mM HEPES (pH 8.0), 50 mM NaCl, 0.015% Tween 20, 0.5% BSA) and the solution is mix uniformly, and then 3-fold gradient dilution is performed with the above buffer containing 0.75% DMSO. 9 different test concentrations are set for the same compound. 5 μL of compounds with different concentration gradients was taken to ProxiPlate-384 Plus, White detection plate (PerkinElmer, 6008280), and 2 parallel replicates are set for each concentration gradient.
Next, a binding blocking reaction is performed. The full-length EED protein (441 amino acids) with His6 tag is diluted to 60 nM with the above buffer, and the biotinylated polypeptide fragment H3K27me3 (amino acids 19-33) (Biotinylated-H3K27me3) is diluted to 75 nM with the same buffer. 5 μL of 75 nM peptide fragments and 5 μL of 60 nM protein are transferred to the testing wells containing the compound respectively. The testing plate is sealed with a film, and is incubated for 30 minutes at room temperature.
Finally, AlphaScreen method is used for detection. Before use, nickel chelate acceptor beads and streptavidin donor beads (Perkin Elmer, product number 6760619M) are mixed into the above reaction buffer at a ratio of 1:1, and then 5 μL of the above pre-mixed testing solution is added to each testing well. The final concentration of the donor beads and acceptor beads is 5 μg/mL. The testing plate is covered with tin foil and placed at room temperature in the dark for 1 hour. Signals are read using an AlphaScreen detector on a Spectra max i3. The AlphaScreen signal is normalized according to the readings obtained from the positive control (maximum signal control) and negative control (minimum signal control) to give the inhibition rate of different concentrations of the compound. After that, non-linear regression analysis was performed with GraphPad Prism 5, and dose-response equation Y=Bottom+(Top−Bottom)/(1+10^((Log IC50−X)*HillSlope)) is used to make an inhibition curve, obtaining the IC50 value of each compound. […]
In general terms: In Alpha technology, singlet oxygen from a donor bead excites a nearby acceptor bead.

The test system of assay [2] is trimethylation level of histone H3K27 in G401 cells. As to the kind of experiment: ELISA (H3K27 trimethylation) analysis in G401 cells. The class given is cell-based. As to conditions: H3K27me3 normalized by H3. As for the experimental part:
Example 54: ELISA (H3K27 Trimethylation) Analysis
Representative compounds of the present disclosure are diluted in DMSO with 3-fold gradient, and 10 concentration gradients are tested per compound. The maximum testing concentration is 10 μM. The compound is diluted 200-fold into G401 cells cultured in 96-well plates (the final concentration of DMSO is 0.5%). After the cells are cultured for 72 hours, the trimethylation level of histone H3K27 is detected by ELISA method.
Histone extraction: compound-treated cells in a 96-well plate are washed 3 times with 1×PBS (10×PBS buffer (80 g NaCl (Sigma, Product No. S3014), 2 g KCl (Sigma, Product No. 60128), 14.4 g Na2HAPO4 (Sigma, Product No. S5136) and 2.4 g KH2PO4 (Sigma, Product No. P9791) are added to 1 L water, pH to 7.4), and 100 μL of 0.4N HCl is added to each well. The 96-well plate is placed at 4° C. and gently shaken for 2 hours to lyse the cells. The cell lysate is then neutralized with 80 μL of neutralization buffer (0.5M disodium hydrogen phosphate, pH 12.5, 2.5 mM DTT; 1% cocktail (Sigma, Product No. P8340) (mixing the cell lysate and neutralization buffer thoroughly).
ELISA detection method: the cell lysates are transferred in parallel to two 384-well assay plates (PerkinElmer, OptiPlate-384HB, Product No. 6007290). One plate is used to detect the trimethylation level of H3K27, and the other plate is used to measure the level of H3. PBS is adjusted to a final volume of 50 μL/well. The wells are coated overnight at 4° C. On the next day, the solution in the wells was discarded. TBST buffer (1 xTBS (10×TBS: 24.2 g Tris (Sigma, Product No. T6066) and 80 g NaCl (Sigma, Product No. S3014) are added to 1 L water, and pH is adjusted to 7.6 with HCl) and 0.1% Tween-20) is used to wash it 5 times, and the water is dried on absorbent papers. 70 μL of blocking buffer (TBST, 5% BSA) is added to the coated reaction wells, and the wells are incubated for 1 hour at room temperature. The blocking buffer was discarded, and the primary antibody is added (30 μL/well). The required primary antibodies are diluted with blocking buffer, and the dilution ratios were as follows: anti-H3K27me3 antibody (Cell Signaling Technology, Product No. 9733), 1:2000 dilution; anti-H3 antibody (Cell Signaling Technology, Product No. 4499), 1:10000 dilution. After adding the primary antibody, the wells are incubated at room temperature for 1 hour. After washing with TBST for 5 times, the water are dried. The secondary antibody (30 μL/well) is added to each reaction well, and the wells are incubated at room temperature for 1 hour. Secondary antibody (anti-rabbit antibody (Jackson ImmunoResearch, Product No. 111-035-003)) is used after dilution 2000-fold in blocking buffer. After 1 hour, it is washed with TBST and dried. 30 μL of ECL substrate (Pierce, Product No. 34080) is added to each well and centrifuged for 30 seconds at 2000 rpm. Signal of each sample is detected using Molecular Devices, SpectraMax. Data processing: H3K27 methylation readings are first normalized by H3 signal. 0.500 DM8)-treated sample is used as a control, and the inhibition percentage of the compound is calculated. The data is fitted to a dose-response curve using the GraphPad prisim5 program, obtaining the IC50 values of the test compounds.
For orientation: In an ELISA, binding on a coated surface is turned into a signal by an enzyme label.

The subject of assay [3] is B-cell non-Hodgkin lymphoma cells KARPAS-422. As to the kind of experiment: Cell proliferation analysis, KARPAS-422, 13 days, CellTiter-Glo. The class given is cell-based, Human. As to the method: Example 55: Cell Proliferation Analysis
Human B-cell non-Hodgkin lymphoma cells KARPAS-422 S were cultured in culture flasks using standard cell culture conditions. The culture medium contains 15% fetal bovine serum (FBS, Invitrogen, product number 10099-141), 1% penicillin/streptomycin solution (P/S) RPMI-1640 (Invitrogen, product number 11875), and the culture flask is placed and cultured in a sterile incubator at 37° C., 95% relative humidity, and 5% CO2. In order to detect the effect of PRC2 inhibitors on cell proliferation, cells in the exponential growth phase were seeded into 96-well plates (Corning, product number 3904) at a density of 1×10^4 cells/well, and 100 μL of medium was added to each well. Subsequently, the compounds disclosed herein at different concentrations were added to the wells seeded with cells (9 concentration gradients were set for each compound, and the highest detection concentration was 10 μM, 3-fold gradient dilution), and 2 repeats in parallel were set for each treatment concentration. The final concentration of DMSO is 0.5%. Then the number of surviving cells was counted with Vi-CELL (Beckman Coulter) every 3-4 days. The cells counted each time were seeded into a new 96-well plate at the same density (1×10^4 cells/well). The wells were supplemented with fresh medium to 100 μL, and different concentrations of the compound were added at the same time. The cells were cultured until the 13th day, on which 100 μL of CellTiter-Glo (CellTiter-GloCellTiter-GloCellTiter-GloCTG) (Promega, Product No. G7573) was added to each well. The plate was placed for 10-20 minutes in the dark at room temperature, and Molecular Devices and SpectraMax i3X were used to read the luminous signal. The data were fitted to a dose-response curve using GraphPad prisim5 and the IC50 values of the tested compounds were obtained.
(In general: ATP-based viability assays read luminescence as a measure of living cells.)

The mark [4] stands for this setting: Homo sapiens, KARPAS-422, 312 h, Karpas-422, 13 days.

T1 sequence (O75530 whole entry): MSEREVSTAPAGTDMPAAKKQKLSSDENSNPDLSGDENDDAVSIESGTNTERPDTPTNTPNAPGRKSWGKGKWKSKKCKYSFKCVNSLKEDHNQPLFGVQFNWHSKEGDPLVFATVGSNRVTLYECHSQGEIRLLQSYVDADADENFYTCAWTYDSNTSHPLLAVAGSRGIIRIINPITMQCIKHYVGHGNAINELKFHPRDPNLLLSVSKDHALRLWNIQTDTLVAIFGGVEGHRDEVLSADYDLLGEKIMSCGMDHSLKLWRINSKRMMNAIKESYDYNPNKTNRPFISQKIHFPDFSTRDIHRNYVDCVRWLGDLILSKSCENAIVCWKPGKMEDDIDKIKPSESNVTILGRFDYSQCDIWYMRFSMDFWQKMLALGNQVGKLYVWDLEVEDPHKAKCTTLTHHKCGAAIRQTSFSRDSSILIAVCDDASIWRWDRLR

Consider `CCC(C)(O)c1ccc(-c2cnc(NCc3c(F)ccc4c3CCO4)n3cnnc23)c2ncnn12` (single isomer, unassigned) [Compound a], for which the IC50 in assay [1] worked out at 0.0054 µM; in assay [2] (Homo sapiens, G-401, 72 h) it was 0.0012 µM; in assay [3] (setting [4]), 0.0041 µM.

On to `CCC(C)(O)c1ccc(-c2cnc(NCc3c(F)ccc4c3CCO4)n3cnnc23)c2ncnn12` (single isomer, unassigned) [Compound b], for which the 50% inhibitory concentration (IC50) in assay [1] was 0.0089 µM; in assay [2] (72 hours) it was 0.0017 µM; in assay [3] (Karpas-422, 13 days), 0.0079 µM.

Turning to `CC(O)(c1ccc(-c2cnc(NCc3c(F)ccc4c3CCO4)n3cnnc23)c2ncnn12)C(F)(F)F` (single isomer, unassigned) [Compound c], the IC50 was found to be 0.0025 µM in assay [1]; 0.0017 µM in assay [2] (Homo sapiens, G-401, 72 h); 0.0095 µM in assay [3] (setting [4]).

In the case of `CC(O)(c1ccc(-c2cnc(NCc3c(F)ccc4c3CCO4)n3cnnc23)c2ncnn12)C(F)(F)F` (single isomer, unassigned) [Compound d], the half-inhibitory concentration (IC50) in assay [1] turned out to be 0.0055 µM; in assay [2] (Homo sapiens, G-401, 72 hours) it was 0.0047 µM; in assay [3] (Homo sapiens, KARPAS-422, 312 h) it was 0.0087 µM.

For the molecule `CCC(O)c1ccc(-c2cnc(NCc3c(F)ccc4c3CCO4)n3cnnc23)c2ncnn12` (single isomer, unassigned) [Compound e], the IC50 in assay [1] is 0.0064 µM; in assay [2] (72 hours), 0.0004 µM; in assay [3] (Karpas-422, 13 days) it was 0.002 µM.

Take `CCC(O)c1ccc(-c2cnc(NCc3c(F)ccc4c3CCO4)n3cnnc23)c2ncnn12` (single isomer, unassigned) [Compound f]: the IC50 was 0.0066 µM in assay [1]; 0.0013 µM in assay [2] (72 hours); 0.0054 µM in assay [3] (Karpas-422, 13 days).

For `CC(O)(CF)c1ccc(-c2cnc(NCc3c(F)ccc4c3CCO4)n3cnnc23)c2ncnn12` (single isomer, unassigned) [Compound g], the 50% inhibitory concentration (IC50) is 0.004 µM in assay [1]; 0.0006 µM in assay [2] (Homo sapiens, G-401, 72 h); 0.0015 µM in assay [3] (setting [4]).

Consider `CC(O)(CF)c1ccc(-c2cnc(NCc3c(F)ccc4c3CCO4)n3cnnc23)c2ncnn12` (single isomer, unassigned) [Compound h], for which the IC50 in assay [1] turned out to be 0.0048 µM; in assay [2] (72 hours) it was 0.0012 µM; in assay [3] (Karpas-422, 13 days), 0.0025 µM.

In the case of `CC(O)(c1ccc(-c2cnc(NCc3c(F)ccc4c3CCO4)n3cnnc23)c2ncnn12)C(F)(F)F` (stereo not drawn) [1,1,1-trifluoro-2-(8-(5-(((5-fluoro-2,3-dihydrobenzofuran-4-yl)methyl)amino)-[1,2,4]triazolo[4,3-c]pyrimidin-8-yl)-[1,2,4]triazolo[1,5-a]pyridin-5-yl)propan-2-ol], the IC50 in assay [1] came to 0.0048 µM; in assay [2] (Homo sapiens, G-401, 72 h) it was 0.0019 µM; in assay [3] (setting [4]) it was 0.0088 µM.

`OC(c1ccc(-c2cnc(NCc3c(F)ccc4c3CCO4)n3cnnc23)c2ncnn12)(C(F)F)C(F)F` [1,1,3,3-tetrafluoro-2-(8-(5-(((5-fluoro-2,3-dihydrobenzofuran-4-yl)methyl)amino)-[1,2,4]triazolo[4,3-c]pyrimidin-8-yl)-[1,2,4]triazolo[1,5-a]pyridin-5-yl)propan-2-ol]: the half-inhibitory concentration (IC50) in assay [1] was 0.003 µM; in assay [2] (Homo sapiens, G-401, 72 h) it was 0.0012 µM; in assay [3] (setting [4]), 0.0049 µM.

With `CC(O)(c1ccc(-c2cnc(NCc3c(F)ccc4c3CCO4)n3cnnc23)c2ncnn12)C(F)F` (stereo not drawn) [1,1-difluoro-2-(8-(5-(((5-fluoro-2,3-dihydrobenzofuran-4-yl)methyl)amino)-[1,2,4]triazolo[4,3-c]pyrimidin-8-yl)-[1,2,4]triazolo[1,5-a]pyridin-5-yl)propan-2-ol], the concentration for half-maximal inhibition (IC50) was determined as 0.0051 µM in assay [1]; 0.0015 µM in assay [2] (Homo sapiens, G-401, 72 h); 0.0048 µM in assay [3] (setting [4]).

In assay [1], `Fc1ccc2c(c1CNc1ncc(-c3cccn4ncnc34)c3nncn13)CCO2` [8-([1,2,4]triazolo[1,5-a]pyridin-8-yl)-N-((5-fluoro-2,3-dihydrobenzofuran-4-yl)methyl)-[1,2,4]triazolo[4,3-c]pyrimidin-5-amine] gave a half-inhibitory concentration (IC50) of 0.0047 µM.

In assay [1], `Cc1ccc(-c2cnc(NCc3c(F)ccc4c3CCO4)n3cnnc23)c2ncnn12` [N-((5-fluoro-2,3-dihydrobenzofuran-4-yl)methyl)-8-(5-methyl-[1,2,4]triazolo[1,5-a]pyridin-8-yl)-[1,2,4]triazolo[4,3-c]pyrimidin-5-amine] returned a 50% inhibitory concentration (IC50) of 0.0089 µM.

As for `Cc1ccc(-c2cnc(NCc3c(F)ccc4c3[C@H]3C[C@H]3O4)n3cnnc23)c2ncnn12` [N-(((1aR,6bR)-5-fluoro-1a,6b-dihydro-1H-cyclopropeno[b]benzofuran-6-yl)methyl)-8-(5-methyl-[1,2,4]triazolo[1,5-a]pyridin-8-yl)-[1,2,4]triazolo[4,3-c]pyrimidin-5-amine], in assay [1], the half-maximal inhibitory concentration (IC50) worked out at 0.0035 µM.

A word on the IC50: it is the midpoint of a concentration-inhibition curve. High values mean lower potency, low ones higher potency.
